We go through 21 substances from patent US4931553A, “Platinum-polymer complexes and their use as antitumor agents” (priority 1988, dated 1990).

Data set [1] deals with tumors responsive to cisplatin and/or DACH-Pt and bisplatinum complex therapy. The experiment in a line: Anti-tumor activity (statement for the pyran copolymer complex). To be noted: in vivo.
The conditions of data set [2]: cited from earlier work.
The nature of data set [3]: Aqueous solubility of polymeric platinum prodrugs. The format is physicochemical. The note with it: for Aqueous solubility / Appearance: Table I; for Appearance: appearance of the aqueous solution; for Solubility of the complex: temperature not stated; for Solubility at RT: room temperature. The text has this: Three polyacrylic acid polymers of weight average molecular weight 2000, 5000, 15,000 were used as ligands for complexation with Pt(DACH)(NO3)2 to determine the effect of molecular weight on the physical properties and antitumor properties of the complexes. […] In addition to polyacrylic acids, polymethacrylic acid of 15,000 weight average molecular weight and isotactic and syndiotactic polymethacrylic acid polymers of about 5000 Mw were used as ligands. The polyacrylates were complexed with Pt(DACH)(NO3)2 in aqueous solution at pH 4-6.

The test system of the next data set is L1210 murine tumor. The experiment in a line: L1210 murine tumor model in BDF1 mice (T/C% and cures). The format is in vivo. On the procedure:
Some of the specific compounds of the examples above were tested by NCI against L1210 murine tumor model in BDF1 mice. The tumored mice were injected ip with solutions of compounds on days 1, 5, and 9 after the cell innoculum. The results of the experiments were evaluated on day 30 and are expressed as the quotient of the median survival time in days of test animals divided by median day of death of the untreated control mice, multiplied by 100 (T/C%). Mice with no sign of tumor on day 30 are considered as cured.
T/C = Ratio of test evaluation to control evaluation expressed as
percentage. More precisely, T/C = Median survival time of test animals
× 100 (Median survival time of control).

Data set [4] deals with x5563 Plasma Cell Myeloma. Kind of data set: Inhibition of tumor weight, x5563 Plasma Cell Myeloma implanted subcutaneously. The data set is classed as in vivo, mice. The note with it: day 30. How it is done: (§1) In addition to the L1210 tumor line, Pt(trans-DACH)carboxyamylose (Pt:Polymer=1:6) was screened against additional murine tumor models. In these experiments, tumor of a known weight was implanted subcutaneously to the mice. The mice were then treated with the compound on day 1, 5, 9 schedule. On day 30, the tumors were reweighed and the results are expressed as percent inhibition of tumor weight.

For a further data set, the system named is M5 ovarian Carcinoma. The experiment in a line: Inhibition of tumor weight, M5 ovarian Carcinoma implanted subcutaneously. The format is in vivo, mice. The note with it: day 30. On the procedure: as §1
The test system of another data set is Lewis Lung. The experiment in a line: Inhibition of tumor weight, Lewis Lung implanted subcutaneously. The format is in vivo, mice. To be noted: day 30. How it is done: as §1
A further data set deals with CA - 755 Adenocarcinoma. The experiment in a line: Inhibition of tumor weight, CA-755 Adenocarcinoma implanted subcutaneously. The note with it: day 30. The format is in vivo, mice. How it is done: as §1
Data set [5] is described as follows: Aqueous solubility of polymeric platinum prodrugs. The data set is classed as physicochemical. To be noted: Table I; for Appearance: appearance of the aqueous solution.
Another data set has as its system animal tumors. The note with it: in vivo; cited from earlier work.
For the next data set, the system named is malignancies in humans. The note with it: in vivo; cited from earlier work.
[6] abbreviates: Table 2, 10 mg/kg, ip days 1, 5, 9, day 30.
Where [7] appears, read: Table 2, 10 mg/kg, ip days 1, 5, 9, no sign of tumor on day 30.
Where [8] appears, read: Table 2, 20 mg/kg, ip days 1, 5, 9, day 30.
Setting [9] is: Table 2, 20 mg/kg, ip days 1, 5, 9, no sign of tumor on day 30.

In the case of “(trans-DACH) Pyran Copolymer Complex [Example 19]”, in data set [1], the “Anti-tumor activity (in words)” value was “exhibits anti-tumor activity”.

With DACH-Pt(OH2)Cl2 (IV), the “Solubility of platinum-amine complexes (at most sparingly soluble)” value in data set [2] (at most sparingly soluble) is below 1 mg/mL.

For “Pt(trans DACH)Carboxy amylopectin (176,000 Mw) [Example 17]”, in data set [3], the Aqueous solubility (as a rule, the concentration that dissolves in the medium under given conditions) came out at 725 mg/mL; the Appearance result is recorded as “clear”; the “Solubility of the complex” value is “greater than 25 mg per ml”. For the same substance, the T/C with L1210 murine tumor (setting [6]) is recorded as 357%. Further, in the data set with L1210 murine tumor (setting [7]), the Cures is 3/6. In the data set on L1210 murine tumor (setting [8]), this substance showed a T/C of 261%. In the data set with L1210 murine tumor (setting [9]), the Cures was 1/6.

As for “Pt(trans-DACH)CO oxyalginic Acid (75.000 Mw) [Example 15]”, the “Solubility in 10% sodium bicarbonate solution” value in [3] (10% sodium bicarbonate, 40° C.) worked out at 25 mg/mL.

As for “Pt(trans-DACH)Carboxy Amylopectin (176.000 Mw) [Example 7 (freeze-dried)]”, in [3], the Solubility (commonly how much of the substance goes into solution per volume) at 50° C. was 25 mg/mL.

For “Pt(trans-DACH)Carboxy Amylopectin (176.000 Mw) [Example 7]”, in data set [3], the Aqueous solubility is 25 mg/mL. For the same substance, the Appearance entry in [3] is “clear”. Besides, the T/C with L1210 murine tumor (setting [6]) is 337%; in the data set with L1210 murine tumor (setting [8]), 314%; in the data set on L1210 murine tumor (Table 3, 10 mg/kg) it was 337; with L1210 murine tumor (Table 3, 20 mg/kg) it was 314. The Cures with L1210 murine tumor (setting [7]) was 4/6; in the data set with L1210 murine tumor (setting [9]), 2/6; in the data set with L1210 murine tumor (Table 3, 10 mg/kg) it was 4/6; in the data set on L1210 murine tumor (Table 3, 20 mg/kg), 2/6.

In the case of “Pt(trans-DACH)Carboxy Amylose (4,800 Mw) [Example 6]”, the “Solubility at 50° C.” value in data set [3] was 20 mg/mL.

“Pt(trans-DACH)Carboxy Amylose (50% degree of Oxidation) [Example 13]”: the “Solubility at 50° C.” value in data set [3] is 25 mg/mL.

On to “Pt(trans-DACH)Carboxy Amylose (176.000 Mw) [Example 5]”, for which the Aqueous solubility in [3] was found to be 10 mg/mL. Also, the Appearance result in data set [3] is given as “clear”. For the same substance, the T/C with L1210 murine tumor (setting [6]) is on record as 269%; in the data set with L1210 murine tumor (setting [8]) it was 269%; in the data set with L1210 murine tumor (Table 2, 40 mg/kg, ip days 1, 5, 9, day 30) it was 292%. In addition, the Cures with L1210 murine tumor (setting [7]) is listed as 1/6; in the data set with L1210 murine tumor (setting [9]), 2/6; in the data set on L1210 murine tumor (Table 2, 40 mg/kg, ip days 1, 5, 9, no sign of tumor on day 30), 2/6. Also, the “% Inh. of tumor weight” value in data set [4] (dose 5, days 1, 5, 9) was found to be 100%; in data set [4] (dose 10, days 1, 5, 9), 100%; in [4] (dose 20, days 1, 5, 9), 100%; in the data set with M5 ovarian Carcinoma (dose 5, days 1, 5, 9), 64%; in the data set on M5 ovarian Carcinoma (dose 10, days 1, 5, 9) it was 86%; with M5 ovarian Carcinoma (dose 20, days 1, 5, 9), 99%. The “% Inh. of tumor weight” value in the data set on Lewis Lung (dose 1.25, days 1, 5, 9) was 20%; with Lewis Lung (dose 2.5, days 1, 5, 9), 37%; in the data set on Lewis Lung (dose 5, days 1, 5, 9) it was 34%; with CA - 755 Adenocarcinoma (dose 5, days 1, 5, 9), 69%; with CA - 755 Adenocarcinoma (dose 10, days 1, 5, 9) it was 81%; in the data set on CA - 755 Adenocarcinoma (dose 20, days 1, 5, 9), 94%.

Regarding “Pt(trans-DACH)Carboxy Dextran (11.700 Mw)”, in [5] (6), the Aqueous solubility worked out at 100 mg/mL and the Appearance result is given as “clear”.

With “Pt(trans-DACH)Carboxy Dextran (11.700 Mw) [Example 8]”, the “Solubility at 50° C.” value in data set [3] was determined as 25 mg/mL. In addition, in data set [5] (2), the Aqueous solubility amounted to 25 mg/mL and the Appearance result is on record as “cloudy”.

As to “Pt(trans-DACH)Carboxy Dextran (21,200 Mw) [Example 9]”, in [3], the “Solubility at RT” value is 100 mg/mL.

With “Pt(trans-DACH)Carboxy Dextran (40,000 Mw) [Example 18]”, in data set [3], the Aqueous solubility is 730 mg/mL, the Appearance entry is given as “clear” and the “Solubility of the complex” value is on record as “greater than 30 mg per ml”.

Regarding “Pt(trans-DACH)Carboxy Dextran (47,000 Mw) [Example 10]”, in data set [3] (water, room temperature and up to 50° C.), the “Solubility in water at room temperature and up to 50° C. (in words)” value was “insoluble in water at room temperature and up to 50 °C”.

Consider “Pt(trans-DACH)Carboxy Dextran Sulfate (6,000 Mw) [Example 11]”, for which the “Solubility at RT” value in data set [3] is 50 mg/mL.

As for “Pt(trans-DACH)Carboxy Dextran, 11,700 Mw (58% Degree of Oxidation) [Example 12]”, in data set [3], the “Solubility at RT” value stood at 100 mg/mL.

Regarding “Pt(trans-DACH)Carboxy Polygalacturonic Acid [Example 14]”, the “Solubility in aqueous solution (in words)” value in [3] (aqueous solution) was “Insoluble in aqueous solution”.

With “Pt(trans-DACH)Carboxyamylose (176,000 Mw) [Example 16]”, in [3], the Aqueous solubility stood at 725 mg/mL and the Appearance result was “clear”. The “Solubility of the complex on slight warming” value in [3] (on slight warming) is “greater than 25 mg per ml”.

For the substance “Pt(trans-DACH)Polyacrylate (5000 Mw) [Example 2]”, the “Solubility in water (in words)” value in data set [3] (water) is on record as “very soluble in water”.

Consider “Pt(trans-DACH)polyacrylate (2000 Mw) [Example 1]”, for which the “Solubility in water (in words)” value in data set [3] (water) is “very soluble in water”.

With cis-[Pt(NH3)2 Cl2 ] [cisplatin], in the data set on L1210 murine tumor (Table 3, 5 mg/kg), the T/C was 175 ± 5. Moreover, in data set [2] (in water), the Water solubility result is on record as “about 1 mg/ml”. The “Effectiveness against animal tumors (in words)” value in the data set with animal tumors is given as “effective against several types of animal tumors”. In addition, the “Use in human malignancies (in words)” value with malignancies in humans is “used successfully in treating certain types of malignancies in humans”.
